≈ marks a conversion by molar mass, not a printed value.
Tests used:
α-glucosidase = test: colorimetric α-glucosidase inhibitory assay; assay type: biochemical; settings: for %Inhibition at 250 µg/mL: sample at 250 µg/mL; for IC50: substrate p-nitrophenyl α-D-glucoside, 37 °C
Protocol: The previously reported approach was used to perform a colorimetric α-glucosidase assay. Briefly, the tested samples (50 µL) were combined with 50 µL of the α-glucosidase enzyme solution (0.05 U/mL) and preincubated at 37 °C for 5 min. The substrate (50 µL, c 1 mM), p-nitrophenyl α-D-glucoside, was added and incubated at 37 °C for 30 min. Then, 50 µL of Na2CO3 (0.3 M) was added. The absorption of the mixture was measured at 405 nm.

Plasmodium falciparum = test system: Plasmodium falciparum; parameters: method as in PMID 19573585; settings: cited from earlier work
HCT116 = test system: HCT116; parameters: method as in PMID 31918304; settings: colon cancer cell line HCT116; read-out: IC50, cytotoxicity against HCT116; cited from earlier work

Compound	%Inhibition at 250 µg/mL (α-glucosidase) [%]	also measured
COc1cccc2c1cc1c3c(cc4c(c32)OC2Oc3c(cc5c6c(cc7ccccc7c36)NC5=O)OC2O4)C(=O)N1 (stereo not shown) [Compound 1, Gonioridleylactam]	99.6	IC50 (α-glucosidase): 138.9 ± 0.9 µM; melting point: 296 to 298 °C
CC(=O)O[C@H]1[C@H]2OC(=O)C=C[C@@H]2O[C@H]1c1ccccc1 [(+)-3-Acetylaltholactone]	–	IC50, antiplasmodial activity (Plasmodium falciparum): 2.6 µg/mL (≈ 9.48 µM)
C[C@@H]1C2=C(NC(=O)[C@@H]1O)C(=O)c1ccccc1C2=O [Compound 4, griffithazanone A]	98.0	–
O=C1C=C[C@@H](O)[C@@H](/C=C/c2ccccc2)O1 [Compound 9, (−)-5-hydroxygoniothalamin]	99.8	–
Cn1cc(C(=O)O)c2c1C(=O)c1ccccc1C2=O [Compound 3, goniochelienic acid B]	99.5	–
C[C@H]1O[C@H](O[C@H]2[C@H](O)[C@@H](O)[C@@H](O[C@H]3[C@H](O)[C@@H](O)C(O)O[C@@H]3CO)O[C@@H]2CO)[C@H](O)[C@@H](O)[C@@H]1N[C@H]1C=C(CO)[C@@H](O)[C@H](O)[C@H]1O (stereo partly shown) [Acarbose, reference compound]	88.1	–
(−)-nordicentrine	–	IC50, antiplasmodial activity (Plasmodium falciparum): 0.3 µg/mL
O=C1C=CCC(/C=C\c2ccccc2)O1 (stereo not shown) [(Z)-6-styryl-5,6-dihydro-2-pyranone]	–	IC50 (HCT116): 22.2 µM
Cn1cc(CO)c2c1C(=O)c1ccccc1C2=O [Compound 2, 3-hydroxymethyl-1-methyl-1H-benz[f]indole-4,9-dione]	99.3	–
O=C1C=CC(=CC=Cc2ccccc2)O1 [Compound 7, 5-(3-phenyl-2-propenylidene)-2(5H)-furanone]	98.6	IC50 (α-glucosidase): 1.25 ± 0.4 µM
